PubChem BioAssay (NCI)
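Where inhibition never reached the appropriate level, the endpoint shown equals the highest concentration tested. Otherwise, values were interpolated linearly from a five-concentration, 48-hour dose response in 96-well plates. GI50 is the concentration that inhibits growth by half. TGI denotes the concentration required for complete inhibition of growth.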

Columns and labels:
Experiment in all cases: NCI-60 cell line screen, 48 h
HOP-62 NSCLC = system: HOP-62 NSCLC
MOLT-4 leukemia = system: MOLT-4 leukemia
SK-MEL-2 melanoma = system: SK-MEL-2 melanoma
K-562 leukemia = system: K-562 leukemia
LXFL 529 NSCLC = system: LXFL 529 NSCLC
SNB-78 CNS = system: SNB-78 CNS
NCI-H23 lung = system: NCI-H23 lung
U251 CNS = system: U251 CNS
LOX IMVI melanoma = system: LOX IMVI melanoma
HS 578T breast = system: HS 578T breast

| Compound | TGI (HOP-62 NSCLC) [µM] | TGI (MOLT-4 leukemia) [µM] | TGI (SK-MEL-2 melanoma) [µM] | TGI (K-562 leukemia) [µM] | TGI (LXFL 529 NSCLC) [µM] | TGI (SNB-78 CNS) [µM] | TGI (NCI-H23 lung) [µM] | TGI (U251 CNS) [µM] | TGI (LOX IMVI melanoma) [µM] | GI50 (HOP-62 NSCLC) [µM] | GI50 (MOLT-4 leukemia) [µM] | GI50 (HS 578T breast) [µM] | TGI (HS 578T breast) [µM] | GI50 (SK-MEL-2 melanoma) [µM] | GI50 (K-562 leukemia) [µM] | GI50 (NCI-H23 lung) [µM] | GI50 (U251 CNS) [µM] | GI50 (LOX IMVI melanoma) [µM] |
| --- | --- | --- | --- | --- | --- | --- | --- | --- | --- | --- | --- | --- | --- | --- | --- | --- | --- | --- |
| Clc1ccc(N=Nc2nc3ccccc3nc2N=Nc2ccc(Cl)cc2Cl)c(Cl)c1 | > 100 | > 100 | > 100 | > 100 | > 100 | > 100 | > 100 | > 100 | > 100 |  |  |  |  |  |  |  |  |  |
| CCN(CC)CCOc1ccc(CCc2cc(OC)c(OC)c(OC)c2)cc1 | 81.4 | 85.2 |  | > 100 | > 100 | > 100 |  | > 100 | 26.9 |  |  |  |  |  |  |  |  |  |
| C[C@]12CCc3sc(NCCc4ccccc4)nc3C1=CC[C@@H]1[C@@H]2CC[C@]2(C)C(=O)CC[C@@H]12 | > 100 | > 100 | > 100 | > 100 |  |  | > 100 | > 100 | 3.17 | 8.52 | 2.58 | 2.85 | > 100 | 17 | 2.89 | 5.03 | 4.97 | 1.7 |
| O=C(Nc1cccc(-n2cc(-c3ccncc3)c(-c3cc(O)cc(Cl)c3)n2)c1)Nc1ccc(Cl)c(C(F)(F)F)c1 | 13.4 | 5.81 | 4.55 | 11.9 |  |  | 7.45 | 3.65 | 4.36 | 3.08 | 1.99 | 3.29 | > 100 | 2.2 | 2.59 | 2.58 | 1.72 | 1.97 |
| c1ccc(C(c2ccccc2)c2cccnc2)cc1 | > 100 |  | > 100 | > 100 |  | > 100 | > 100 | > 100 | > 100 |  |  |  |  |  |  |  |  |  |
